Earlier results on one molecule are cited in patent publication US12521484B2, “Irrigation system and methods of use” (Osteal Therapeutics, Inc., priority 2023, dated 2026).

The conditions of data set [1]: instillation of 50,000-100,000 μg/mL once or twice daily into the joint space; multiple patients.
The subject of data set [2] is multiple common PJI organisms.

As for `CN[C@H](CC(C)C)C(=O)N[C@H]1C(=O)N[C@@H](CC(N)=O)C(=O)N[C@H]2C(=O)N[C@H]3C(=O)N[C@H](C(=O)N[C@H](C(=O)O)c4cc(O)cc(O)c4-c4cc3ccc4O)[C@H](O)c3ccc(c(Cl)c3)Oc3cc2cc(c3O[C@@H]2O[C@H](CO)[C@@H](O)[C@H](O)[C@H]2O[C@H]2C[C@](C)(N)[C@H](O)[C@H](C)O2)Oc2ccc(cc2Cl)[C@H]1O` [vancomycin], the serum concentrations entry in data set [1] is “exceeding safe limits”. The “minimum biofilm eradication concentration (MBEC)” value in data set [2] is “greater than 4,000 μg/mL”.
